# Test results: ChEMBL document CHEMBL1687815, “In vivo selection of a missense mutation in adeR and conversion of the novel blaOXA-164 gene into blaOXA-58 in carbapenem-resistant Acinetobacter baumannii isolates from a hospitalized patient” (2010)
# Active and inactive are the calls of the source. No cut-off for these calls is given here.
# Assays:
# Acinetobacter baumannii [1] = assay: Antimicrobial activity against Acinetobacter baumannii isolate D expressing beta-lactamase OXA-164 isolated from tracheal secretion of patient by vitek 2 system
# Acinetobacter baumannii [2] = assay: Antimicrobial activity against Acinetobacter baumannii isolate E expressing beta-lactamase OXA-164 isolated from tracheal secretion of patient by vitek 2 system
# Acinetobacter baumannii [3] = assay: Antimicrobial activity against Acinetobacter baumannii isolate F expressing beta-lactamase OXA-164 isolated from tracheostoma of patient by vitek 2 system
# Acinetobacter baumannii [4] = assay: Antimicrobial activity against Acinetobacter baumannii isolate C expressing beta-lactamase OXA-164 isolated from tracheal secretion of patient by vitek 2 system
# Acinetobacter baumannii [5] = assay: Antimicrobial activity against Acinetobacter baumannii isolate G expressing beta-lactamase OXA-58 isolated from tracheal secretion of patient by vitek 2 system
# Acinetobacter baumannii [6] = assay: Antimicrobial activity against Acinetobacter baumannii isolate A expressing beta-lactamase OXA-164 isolated from tracheal secretion of patient by vitek 2 system
# Acinetobacter baumannii [7] = assay: Antimicrobial activity against Acinetobacter baumannii isolate L expressing beta-lactamase OXA-58 isolated from tracheal secretion of patient by vitek 2 system
# Acinetobacter baumannii [8] = assay: Antimicrobial activity against Acinetobacter baumannii isolate M expressing beta-lactamase OXA-58 isolated from tracheal secretion of patient by vitek 2 system
# Acinetobacter baumannii [9] = assay: Antimicrobial activity against Acinetobacter baumannii isolate K expressing beta-lactamase OXA-58 isolated from blood culture of patient by vitek 2 system
# Acinetobacter baumannii [10] = assay: Antimicrobial activity against Acinetobacter baumannii isolate I expressing beta-lactamase OXA-58 isolated from tracheal secretion of patient by vitek 2 system
# Acinetobacter baumannii [11] = assay: Antimicrobial activity against Acinetobacter baumannii isolate B expressing beta-lactamase OXA-164 isolated from tracheal secretion of patient by vitek 2 system
# Acinetobacter baumannii [12] = assay: Antimicrobial activity against Acinetobacter baumannii isolate J expressing beta-lactamase OXA-58 isolated from bedsore by vitek 2 system
# Acinetobacter baumannii [13] = assay: Antimicrobial activity against Acinetobacter baumannii isolate H expressing beta-lactamase OXA-58 isolated from tracheal secretion of patient by vitek 2 system
# Acinetobacter baumannii [14] = assay: Antimicrobial activity against Acinetobacter baumannii isolate D expressing beta-lactamase OXA-164 isolated from tracheal secretion of patient by Etest
# Acinetobacter baumannii [15] = assay: Antimicrobial activity against Acinetobacter baumannii isolate C expressing beta-lactamase OXA-164 isolated from tracheal secretion of patient by Etest
# Acinetobacter baumannii [16] = assay: Antimicrobial activity against Acinetobacter baumannii isolate K expressing beta-lactamase OXA-58 isolated from blood culture of patient by Etest
# Acinetobacter baumannii [17] = assay: Antimicrobial activity against Acinetobacter baumannii isolate E expressing beta-lactamase OXA-164 isolated from tracheal secretion of patient by Etest
# Acinetobacter baumannii [18] = assay: Antimicrobial activity against Acinetobacter baumannii isolate J expressing beta-lactamase OXA-58 isolated from bedsore by Etest
# Acinetobacter baumannii [19] = assay: Antimicrobial activity against Acinetobacter baumannii isolate I expressing beta-lactamase OXA-58 isolated from tracheal secretion of patient by Etest
# Acinetobacter baumannii [20] = assay: Antimicrobial activity against Acinetobacter baumannii isolate M expressing beta-lactamase OXA-58 isolated from tracheal secretion of patient by Etest
# Acinetobacter baumannii [21] = assay: Antimicrobial activity against Acinetobacter baumannii isolate G expressing beta-lactamase OXA-58 isolated from tracheal secretion of patient by Etest
# Acinetobacter baumannii [22] = assay: Antimicrobial activity against Acinetobacter baumannii isolate B expressing beta-lactamase OXA-164 isolated from tracheal secretion of patient by Etest
# Acinetobacter baumannii [23] = assay: Antimicrobial activity against Acinetobacter baumannii isolate H expressing beta-lactamase OXA-58 isolated from tracheal secretion of patient by Etest
# Acinetobacter baumannii [24] = assay: Antimicrobial activity against Acinetobacter baumannii isolate L expressing beta-lactamase OXA-58 isolated from tracheal secretion of patient by Etest
# Acinetobacter baumannii [25] = assay: Antimicrobial activity against Acinetobacter baumannii isolate A expressing beta-lactamase OXA-164 isolated from tracheal secretion of patient by Etest
# Acinetobacter baumannii [26] = assay: Antimicrobial activity against Acinetobacter baumannii isolate F expressing beta-lactamase OXA-164 isolated from tracheostoma of patient by Etest
Molecule,MIC (Acinetobacter baumannii [1]),MIC (Acinetobacter baumannii [2]),MIC (Acinetobacter baumannii [3]),MIC (Acinetobacter baumannii [4]),MIC (Acinetobacter baumannii [5]),MIC (Acinetobacter baumannii [6]),MIC (Acinetobacter baumannii [7]),MIC (Acinetobacter baumannii [8]),MIC (Acinetobacter baumannii [9]),MIC (Acinetobacter baumannii [10]),MIC (Acinetobacter baumannii [11]),MIC (Acinetobacter baumannii [12]),MIC (Acinetobacter baumannii [13]),other results
CC(C)(O/N=C(\C(=O)N[C@@H]1C(=O)N2C(C(=O)[O-])=C(C[n+]3ccccc3)CS[C@H]12)c1csc(N)n1)C(=O)O,inactive,inactive,inactive,inactive,inactive,inactive,inactive,inactive,inactive,inactive,inactive,inactive,inactive,
CO/N=C(\C(=O)N[C@@H]1C(=O)N2C(C(=O)O)=C(COC(C)=O)CS[C@H]12)c1csc(N)n1,inactive,inactive,inactive,inactive,inactive,inactive,inactive,inactive,inactive,inactive,inactive,inactive,inactive,
CO/N=C(\C(=O)N[C@@H]1C(=O)N2C(C(=O)[O-])=C(C[N+]3(C)CCCC3)CS[C@H]12)c1csc(N)n1,inactive,inactive,inactive,inactive,inactive,inactive,inactive,inactive,inactive,inactive,inactive,inactive,inactive,
CO[C@@]1(NC(=O)Cc2cccs2)C(=O)N2C(C(=O)O)=C(COC(N)=O)CS[C@@H]21,inactive,inactive,inactive,inactive,inactive,inactive,inactive,inactive,inactive,inactive,inactive,inactive,inactive,
COc1c(N2C[C@@H]3CCCN[C@@H]3C2)c(F)cc2c(=O)c(C(=O)O)cn(C3CC3)c12,inactive,inactive,inactive,inactive,inactive,inactive,inactive,inactive,inactive,inactive,inactive,inactive,inactive,
C[C@@H]1O[C@@H]1P(=O)(O)O,inactive,inactive,inactive,inactive,inactive,inactive,inactive,inactive,inactive,inactive,inactive,inactive,inactive,
O=C(O)c1cn(C2CC2)c2cc(N3CCNCC3)c(F)cc2c1=O,inactive,inactive,,inactive,inactive,inactive,inactive,inactive,inactive,inactive,inactive,inactive,inactive,
NCC[C@H](O)C(=O)N[C@@H]1C[C@H](N)[C@@H](O[C@H]2O[C@H](CN)[C@@H](O)[C@H](O)[C@H]2O)[C@H](O)[C@H]1O[C@H]1O[C@H](CO)[C@@H](O)[C@H](N)[C@H]1O [AMIKACIN],≤ 2 µg/mL,≤ 2 µg/mL,≥ 64 µg/mL,32 µg/mL,≥ 64 µg/mL,≥ 64 µg/mL,≥ 64 µg/mL,≥ 64 µg/mL,≥ 64 µg/mL,≥ 64 µg/mL,≥ 64 µg/mL,≥ 64 µg/mL,≥ 64 µg/mL,
C[C@H]1COc2c(N3CCN(C)CC3)c(F)cc3c(=O)c(C(=O)O)cn1c23.C[C@H]1COc2c(N3CCN(C)CC3)c(F)cc3c(=O)c(C(=O)O)cn1c23.O [LEVOFLOXACIN],,,,,,,,,,,,,,MIC (Acinetobacter baumannii [14]): 8 µg/mL; MIC (Acinetobacter baumannii [15]): 8 µg/mL; MIC (Acinetobacter baumannii [16]): ≥ 64 µg/mL; MIC (Acinetobacter baumannii [17]): 16 µg/mL; MIC (Acinetobacter baumannii [18]): ≥ 64 µg/mL; MIC (Acinetobacter baumannii [19]): ≥ 64 µg/mL; MIC (Acinetobacter baumannii [20]): ≥ 64 µg/mL; MIC (Acinetobacter baumannii [21]): ≥ 64 µg/mL; MIC (Acinetobacter baumannii [22]): 8 µg/mL; MIC (Acinetobacter baumannii [23]): ≥ 64 µg/mL; MIC (Acinetobacter baumannii [24]): ≥ 64 µg/mL; MIC (Acinetobacter baumannii [25]): 8 µg/mL; MIC (Acinetobacter baumannii [26]): 8 µg/mL
CN(C)c1cc(NC(=O)CNC(C)(C)C)c(O)c2c1C[C@H]1C[C@H]3[C@H](N(C)C)C(O)=C(C(N)=O)C(=O)[C@@]3(O)C(O)=C1C2=O [TIGECYCLINE],2 µg/mL,2 µg/mL,2 µg/mL,2 µg/mL,≥ 8 µg/mL,2 µg/mL,≥ 8 µg/mL,≥ 8 µg/mL,≥ 8 µg/mL,≥ 8 µg/mL,2 µg/mL,≥ 8 µg/mL,≥ 8 µg/mL,MIC (Acinetobacter baumannii [14]): 4 µg/mL; MIC (Acinetobacter baumannii [15]): 4 µg/mL; MIC (Acinetobacter baumannii [16]): 16 µg/mL; MIC (Acinetobacter baumannii [17]): 4 µg/mL; MIC (Acinetobacter baumannii [18]): 16 µg/mL; MIC (Acinetobacter baumannii [19]): 16 µg/mL; MIC (Acinetobacter baumannii [20]): 16 µg/mL; MIC (Acinetobacter baumannii [21]): 16 µg/mL; MIC (Acinetobacter baumannii [22]): 4 µg/mL; MIC (Acinetobacter baumannii [23]): 16 µg/mL; MIC (Acinetobacter baumannii [24]): 16 µg/mL; MIC (Acinetobacter baumannii [25]): 4 µg/mL; MIC (Acinetobacter baumannii [26]): 4 µg/mL
NC[C@H]1O[C@H](O[C@H]2[C@H](O)[C@@H](O[C@H]3O[C@H](CO)[C@@H](O)[C@H](N)[C@H]3O)[C@H](N)C[C@@H]2N)[C@H](N)C[C@@H]1O [TOBRAMYCIN],≤ 1 µg/mL,≤ 1 µg/mL,≤ 1 µg/mL,≤ 1 µg/mL,≤ 1 µg/mL,≤ 1 µg/mL,≤ 1 µg/mL,≤ 1 µg/mL,8 µg/mL,≤ 1 µg/mL,≤ 1 µg/mL,8 µg/mL,≤ 1 µg/mL,MIC (Acinetobacter baumannii [14]): 2 µg/mL; MIC (Acinetobacter baumannii [15]): 2 µg/mL; MIC (Acinetobacter baumannii [16]): 16 µg/mL; MIC (Acinetobacter baumannii [17]): 2 µg/mL; MIC (Acinetobacter baumannii [18]): 16 µg/mL; MIC (Acinetobacter baumannii [19]): 4 µg/mL; MIC (Acinetobacter baumannii [20]): 4 µg/mL; MIC (Acinetobacter baumannii [21]): 4 µg/mL; MIC (Acinetobacter baumannii [22]): 4 µg/mL; MIC (Acinetobacter baumannii [23]): 4 µg/mL; MIC (Acinetobacter baumannii [24]): 4 µg/mL; MIC (Acinetobacter baumannii [25]): 2 µg/mL; MIC (Acinetobacter baumannii [26]): 2 µg/mL
COLISTIN,< 1 µg/mL,< 1 µg/mL,< 1 µg/mL,< 1 µg/mL,< 1 µg/mL,< 1 µg/mL,< 1 µg/mL,< 1 µg/mL,< 1 µg/mL,< 1 µg/mL,< 1 µg/mL,< 1 µg/mL,< 1 µg/mL,
GENTAMICIN,inactive,inactive,inactive,inactive,inactive,inactive,inactive,inactive,inactive,inactive,inactive,inactive,inactive,
